The text below walks through data of patent US20200054539A1, “METHOD FOR REMOVING KERATOTIC PLUGS” (KAO CORPORATION, priority 2017, published 2020).

Assay [1] can be described thus: Detergency against keratotic plugs: penetration of the sample into the keratotic plugs. Also on record: species or system human. Particulars: keratotic plugs kept in contact with a sample for 1 minute; Table 1 samples. As for the experimental part: (§1) 1. Evaluation of Detergency Against Keratotic Plugs During Cleansing
(§2) Keratotic plugs in the nasal region were removed with “Biore Nose Pack (manufactured by Kao Corporation)”, the resulting keratotic plugs on the pack were gently taken out with tweezers.
(§3) The resulting keratotic plugs were placed on a slide glass and were covered with a cover glass, and 0.05 mL of a sample was dropwise added to an edge of the cover glass. Consequently, the sample enters into the gap between the slide glass and the cover glass by capillary phenomenon and is brought into contact with the keratotic plugs. The contact of the keratotic plugs with the sample was recorded with a digital microscope (VHX-5000, manufactured by Keyence Corporation, magnification: x150), and the penetration of the sample into the keratotic plugs and the collapse state of the keratotic plugs were evaluated after one minute from the contact of the keratotic plugs with the sample. The results of each evaluation are shown in the columns “Detergency against keratotic plugs (penetration)” and “Detergency against keratotic plugs (during cleansing)” in Tables. The measurements were performed at 25° C.
(§4) The penetration was relatively evaluated by 11 criteria from the state 1 “the sample hardly penetrated into the keratotic plug” to the state 11 “the sample penetrated to the center of the keratotic plug”. The collapsibility by the detergency against keratotic plugs was relatively evaluated by 11 criteria from the state 1 “almost no change is observed in the external appearance of the keratotic plug” to the state 11 “peeling or separation is observed in the area from the surface layer to the central portion of the keratotic plug (the initial appearance of the keratotic plug is not retained)”.

The nature of assay [2]: Detergency against keratotic plugs after washing with water. Further details: species or system human. The following applies: keratotic plugs kept in contact with water for 1 minute after the sample.
From the text: as §4
2. Evaluation of Detergency Against Keratotic Plugs after Washing with Water
After one minute from the contact of the keratotic plugs with the sample, KimWipes (registered trademark) was brought into contact with an edge of the cover glass to remove the sample under the cover glass. Subsequently, 0.05 mL of water was dropwise added to an edge of the cover glass. The sample dropwise added with water was recorded with the digital microscope, and the collapse state of the keratotic plugs was evaluated after one minute from the contact of the keratotic plugs with water according to the criteria for evaluating collapsibility of the keratotic plugs. The results of the evaluation are shown in the column “Detergency against keratotic plugs (after washing with water)” in Table. The measurements were performed at 25° C.

Assay [3] is described as follows: Detergency against keratotic plugs during cleansing: collapse state of the keratotic plugs. Also on record: species or system human. The following applies: keratotic plugs kept in contact with a sample for 1 minute; Table 1 samples. As for the experimental part:
as §1, §2, §3, §4

Assay [4] has as its system insoluble protein (zein protein). The experiment in a line: Evaluation of effect of suppressing protein aggregation. Particulars: Table 1 sample. As for the experimental part:
<<Evaluation of Effect of Suppressing Protein Aggregation>>
Thirty milliliters of a sample and 0.06 g of an insoluble protein (zein protein) were placed in a 35-mL standard glass bottle, and the concentration of the insoluble protein was adjusted to 0.2 mass % (test sample). Separately, a standard sample was prepared by using water instead of the sample and adjusting the concentration of the insoluble protein to 0.2 mass %. Subsequently, the standard glass bottles were sufficiently shaken and stirred up and down (shake width: 15 cm, 20 times at a rate of 5 times for 3 seconds) in a thermostatic chamber of 25° C. and were left to stand per 3 minutes. The precipitation state of the insoluble protein was then visually verified, and the ratio of the amount of the precipitated standard sample to the amount of the precipitated test sample (the height of the precipitate in each standard glass bottle was measured as the precipitation amount), (precipitation amount of standard sample)/(precipitation amount of test sample), was calculated. A higher ratio indicates a higher effect of suppressing protein aggregation.

For the compound `N=C(N)NCCC[C@H](N)C(=O)O` [Arginine], the “penetration into keratotic plugs (in words)” value in assay [1] was “penetrated into keratotic plugs”. The “collapse of the keratotic plugs on contact with water (in words)” value (“collapse … with water (in words)” for short) in assay [2] was “further swelled to cause a phenomenon of accelerating the collapse of the keratotic plugs”.

In the case of `O=P([O-])([O-])O.[Na+].[Na+]` [disodium hydrogen phosphate], the “penetration into keratotic plugs (in words)” value in assay [1] is “hardly penetrated into keratotic plugs”. In addition, in assay [3], the “collapse of the keratotic plugs in contact with the sample (in words)” value (“collapse … with the sample (in words)” below) is listed as “the collapse of the keratotic plugs did not progress”. Also, the “collapse … with water (in words)” value in assay [2] is listed as “the collapse of the keratotic plugs did not progress”.

On to `O=C([O-])O.[Na+]` [sodium hydrogen carbonate], for which the “penetration into keratotic plugs (in words)” value in assay [1] is “hardly penetrated into keratotic plugs”. Besides, the “collapse … with the sample (in words)” value in assay [3] is reported as “the collapse of the keratotic plugs did not progress”. Further, the “collapse … with water (in words)” value in assay [2] is “the collapse of the keratotic plugs did not progress”.

Regarding `O=P([O-])([O-])[O-].[Na+].[Na+].[Na+]` [trisodium phosphate], the “penetration into keratotic plugs (in words)” value in assay [1] is on record as “hardly penetrated into keratotic plugs”. Further, the “collapse … with the sample (in words)” value in assay [3] is “the collapse of the keratotic plugs did not progress”. The “collapse … with water (in words)” value in assay [2] is recorded as “the collapse of the keratotic plugs did not progress”.

As for “sodium polyoxyethylene (2) lauryl ether sulfate [POE (2) sodium lauryl sulfate]”, the “penetration into keratotic plugs (in words)” value in assay [1] is reported as “hardly penetrated into the keratotic plugs”. In assay [3], the “collapse … with the sample (in words)” value is “the collapse of the keratotic plugs did not progress”. The “action on proteins (in words)” value in assay [4] is recorded as “the action on proteins was strong to dissolve the proteins”.
